Five compounds from PubChem BioAssay (NCI) can be followed below.

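Protocol summary: plate cells (96-well), add compound at 5 concentrations, incubate 48 h, interpolate endpoints linearly. Here, GI50 denotes the concentration required for 50% inhibition of growth. TGI denotes the concentration required for complete inhibition of growth.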

Some test systems named below: NCI/ADR-RES ovarian; SNB-19 CNS; MDA-MB-231 breast; SK-MEL-5 melanoma; SF-268 CNS; OVCAR-5 ovarian; SN12C renal; PC-3 prostate; NCI-H226 lung; SK-MEL-28 melanoma.
Common to all, as to experiment: NCI anticancer screen, dose series, 48 h

For the compound `CC(C)(C)c1cc(C(=O)/C=C/c2ccc(C(=O)O)cc2)cc(C(C)(C)C)c1`, the TGI in the experiment with NCI/ADR-RES ovarian was determined as 6.8 µM; in the experiment on SNB-19 CNS, 5.74 µM; in the experiment on MDA-MB-231 breast, 13 µM; with SK-MEL-5 melanoma, 14.7 µM; in the experiment with SF-268 CNS, 6.82 µM; in the experiment with OVCAR-5 ovarian, 17.2 µM. The TGI in the experiment with SN12C renal amounted to 6.6 µM; in the experiment on PC-3 prostate it was 16.4 µM; in the experiment on NCI-H226 lung it was 4.22 µM; in the experiment on SK-MEL-28 melanoma, 6.83 µM.
On to `CC(=O)NC1CONC1=O` (stereo not given), for which the TGI with NCI/ADR-RES ovarian, in the experiment with SNB-19 CNS, in the experiment on MDA-MB-231 breast, in the experiment with SK-MEL-5 melanoma, in the experiment with SF-268 CNS and in the experiment on OVCAR-5 ovarian was > 100 µM each time. The TGI in the experiment with SN12C renal, with PC-3 prostate, with NCI-H226 lung and in the experiment on SK-MEL-28 melanoma was > 100 µM throughout.
On to `CN1C(NNC(=O)c2cccnc2)=NS(=O)(=O)c2cc(Cl)ccc21`, for which the GI50 in the experiment with NCI/ADR-RES ovarian, in the experiment with SNB-19 CNS, with MDA-MB-231 breast, in the experiment with SK-MEL-5 melanoma, with SF-268 CNS and in the experiment on OVCAR-5 ovarian was > 100 µM throughout. The GI50 with SN12C renal, with PC-3 prostate, in the experiment on NCI-H226 lung and with SK-MEL-28 melanoma was > 100 µM in each case. The TGI in the experiment on NCI/ADR-RES ovarian, in the experiment on SNB-19 CNS, in the experiment with MDA-MB-231 breast, in the experiment with SK-MEL-5 melanoma, in the experiment with SF-268 CNS and in the experiment on OVCAR-5 ovarian was > 100 µM each time. In addition, the TGI in the experiment with SN12C renal, in the experiment with PC-3 prostate, with NCI-H226 lung and in the experiment with SK-MEL-28 melanoma was > 100 µM each time.
Consider `CC(Cl)CN1c2ccccc2Sc2ccc(Cl)cc21` (stereo not given), for which the TGI in the experiment with NCI/ADR-RES ovarian, with SNB-19 CNS, in the experiment with MDA-MB-231 breast, in the experiment on SK-MEL-5 melanoma, in the experiment with SF-268 CNS and with OVCAR-5 ovarian was > 10 µM in each case. The TGI with SN12C renal, in the experiment with PC-3 prostate, in the experiment on NCI-H226 lung and in the experiment on SK-MEL-28 melanoma was > 10 µM in each case.
In the case of `NCCCn1c2c(c3ccccc3c1=O)C(=O)c1ccccc1-2`, the GI50 in the experiment with NCI/ADR-RES ovarian is 0.145 µM; in the experiment with SNB-19 CNS it was 0.0857 µM; in the experiment with MDA-MB-231 breast, 0.177 µM; with SK-MEL-5 melanoma, 0.105 µM; with SF-268 CNS, 0.498 µM; in the experiment with OVCAR-5 ovarian, 0.306 µM. The GI50 is 0.0791 µM in the experiment on SN12C renal, 0.451 µM in the experiment with PC-3 prostate, 0.143 µM in the experiment on NCI-H226 lung and 0.842 µM with SK-MEL-28 melanoma. The TGI amounted to 2.68 µM with NCI/ADR-RES ovarian; 3.43 µM in the experiment with SNB-19 CNS; 0.736 µM with MDA-MB-231 breast; 0.948 µM with SK-MEL-5 melanoma; 8.55 µM in the experiment on SF-268 CNS; 2.94 µM in the experiment with OVCAR-5 ovarian. Further, the TGI in the experiment with SN12C renal was 0.465 µM; with PC-3 prostate it was 2.98 µM; in the experiment with NCI-H226 lung, 1.74 µM; in the experiment on SK-MEL-28 melanoma, 3.03 µM.
